Measured values from article PMC5316407, “In vivo imaging of systemic transport and elimination of xenobiotics and endogenous molecules in mice” (Archives of Toxicology, 2016).
Values joined by “and” are separate entries in the source; they are usually repeats but may differ in a detail not shown here. Identical values can stand only once. “Also recorded” adds a separate entry of the source.

Tests used:
Format in all cases: in vivo, mouse
[1] = Intravital two-photon imaging of glomerular filtration and tubular transport in the kidney; settings: for Tmax: individual renal tubule; for Half-life: kidney
Procedure: (§1) In vivo recordings were acquired using a custom modified inverted LSM MP7 (Zeiss, Jena, Germany) provided with a two-photon Chameleon Ultra II laser with a tuning range from 680 to 1080 nm and a maximum power of approximately 3.5 W at 800 nm. […] Images were acquired with an LD C-Apochromat 40×/1.1 water immersion objective. The temperature of the specimen was controlled with a matt coated incubation chamber (Solent Scientific, Segensworth, UK).
(§2) For in vivo imaging, 6- to 10-week-old male mice were initially anaesthetized with an intraperitoneal injection of ketamine (64 mg/kg), xylazine (7.2 mg/kg), acepromazine (1.7 mg/kg) and buprenorphine (0.08 mg/kg). […] For liver preparation, the abdominal skin was removed and a small midline incision below the sternum was made with surgical scissors. Subsequently, the falciform ligament was cautiously cut in order to dissociate the liver. […] The cover slip was put in a custom-made image platform from Plexiglas and fit into the stage of the microscope. The exposed liver was then covered with saline-soaked gauze. The temperature control of the incubation chamber was set at 36 °C. The quality of mouse preparation was verified by checking the breathing rate of the mouse and by the regular blood flow in the observed region. For the preparation of the kidney, the mouse was placed on its right side and a small incision made in the left flank region. The convex side of the left kidney was exposed via gentle pressure on the abdominal wall. In order to avoid dryness, the exposed kidney was covered with saline-moistened gauze during imaging. For intestine imaging, an incision was made on the right side of the abdominal wall. The intestine was gently pulled out using a moistened cotton-tipped applicator. To reduce peristalsis, the intestine was incubated in a 1% atropine sulfate bath for 10 min. Subsequently, the intestine was placed in a glass bottom microwell dishes (MatTek corporation, MA, USA) containing 0.5% atropine sulfate bath during the entire recording period. In case of recordings exceeding 1 h, the mice were kept on maintenance anesthesia via a respiratory mask using an evaporator (IAS3801, FMI GmbH, Seeheim-Jugenheim, Germany) with 1–2% isoflurane and a subcutaneous injection of 0.5 ml saline was given.
(§3) Fluorescent markers or fluorescently labeled antibodies were injected via the tail vein before surgery or during recording via lateral tail vein catheters (SAI-infusion, IL, USA). […] All injected antibodies including anti-mouse CD11b, anti-mouse F4/80, anti-mouse NK1.1 and anti-mouse Ly6G (eBioscience, CA, USA) were phycoerythrin conjugated and administered in 100 µl PBS.
(§4) Recorded videos were quantified with the Zen software (Zeiss). Fluorescence intensity was quantified in defined regions of interest.
(§5) Pharmacokinetic analyses were performed with the MoBi® Toolbox for MATLAB (version 6.0.3; Bayer Technology Services GmbH, Leverkusen, Germany). PK-Sim® and MoBi® are freely available for non-commercial academic use.

[2] = Intravital two-photon imaging of hepatic transport after tail vein injection; settings: for Half-life: liver
Procedure: as §1, §2, §3, §4, §5

[3] = Intravital two-photon imaging of intestinal transport (duodenum, capillaries to lacteal)
Procedure: as §1
as §2, with “Subsequently, the intestine was placed in a glass bottom microwell dishes (MatTek corporation, MA, USA) containing 0.5% atropine sulfate bath during the entire recording period. In case of recordings exceeding 1 h, the mice were kept on maintenance anesthesia via a respiratory mask using an evaporator (IAS3801, FMI GmbH, Seeheim-Jugenheim, Germany) with 1–2% isoflurane and a subcutaneous injection of 0.5 ml saline was given.” left out
Recorded videos were quantified with the Zen software (Zeiss). Fluorescence intensity was quantified in defined regions of interest. […]

SMILES: CC(CCC(=O)NC(CCCCNC(=S)Nc1ccc(-c2c3ccc(=O)cc-3oc3cc(O)ccc23)c(C(=O)O)c1)C(=O)O)C1CCC2C3C(O)CC4CC(O)CCC4(C)C3CC(O)C12C (stereo not shown) [CLF, cholyl-lysyl-fluorescein]
- Tmax ([1]; Fig. 7, Tubule: 1): 0.38 min
- Tmax ([1]; Fig. 7, Tubule: 2): 0.38 min
- Tmax ([1]; Fig. 7, Tubule: 3): 0.40 min
- Tmax ([1]; Fig. 7, Tubule: 4): 0.75 min
- Tmax ([1]; Fig. 7, Tubule: 5): 0.45 min
- Tmax ([1]; Fig. 7, Tubule: 6): 0.35 min
- Tmax ([1]; Fig. 7, Tubule: 7): 3.22 min
- Tmax ([1]; Fig. 7, Tubule: 8): 2.82 min
- Tmax ([1]; Fig. 7, Tubule: 9): 3.34 min
- Tmax ([1]; Fig. 7, Tubule: 10): 3.34 min
- Tmax ([1]; Fig. 7, Tubule: 11): 0.40 min
- Tmax ([1]; Fig. 7, Tubule: 12): 0.50 min
- Tmax ([1]; Fig. 7, Tubule: 13): 3.24 min
- Tmax ([1]; Fig. 7, Tubule: 14): 0.37 min
- Tmax ([1]; Fig. 7, Tubule: 15): 3.19 min
- Half-life ([1]; Bowman's space): 2.19 min
- Half-life ([1]; glomerular capillaries): 2.3 min and 2.33 min
- Half-life ([1]; proximal tubule): 4.88 min
- Time to maximum (T max) fluorescence, distal tubules ([1]; tubular lumina, range over imaged tubules): 2.82 to 3.34 min
- Time to maximum homogenous signal in the cytosol of the hepatocytes ([2]; after intravenous injection of 2.5 mg/kg): ~5 min
- Enrichment in the LSEC/space of Dissé ([2]; after tail vein injection): transient enrichment
- Half-life ([2]; LSEC/Dissé space): 13.46 min
- Half-life ([2]; hepatocytes, nd^a = not detectable due to transportation in vesicles): 34.17 min
- Half-life ([2]; sinusoids, fluorescence intensity after tail vein injection (CLF 2.5 mg/kg, dextran 30 mg/kg)): 1.9 min and 1.89 min
- Appearance in the liver sinusoids after tail vein injection ([2]; time after tail vein injection): approximately 15 s
- Transfer from intestinal blood capillaries into lymphatic vessels (lacteals), blood-lacteal barrier ([3]; after intravenous injection): found in traces in the lymphatic vessels; also recorded: virtually impermeable
- Transport from intestinal capillaries into intestinal crypt cells and secretion into the intestinal lumen ([3]; after intravenous injection): No transport
- Half-life ([3]; intestine, blood vessels): 1.45 min
